What was measured:
Format in all cases: functional, cell-based
KB = assay: Antiproliferative activity against human KB cells
HepG2 = assay: Antiproliferative activity against human HepG2 cells
MV4-11 = assay: Antiproliferative activity against human MV4-11 cells
A549 = assay: Antiproliferative activity against human A549 cells
HCT-116 [1] = assay: Antiproliferative activity against human HCT-116 cells
HCT-116 [2] = assay: Antiproliferative activity against human HCT-116 cells assessed as reduction in cell viability; details: Homo sapiens, HCT-116
MDA-MB-231 [3] = assay: Antiproliferative activity against human MDA-MB-231 cells assessed as reduction in cell viability
HT-29 = assay: Antiproliferative activity against human HT-29 cells assessed as reduction in cell viability
[4] = Antiproliferative activity against mouse P388 cells assessed as reduction in cell viability measured after 72 hrs; details: time 72 hrs
HL-60 = assay: Antiproliferative activity against human HL-60 cells assessed as reduction in cell viability measured after 72 hrs; details: HL-60, time 72 hrs
P388/ADR = assay: Antiproliferative activity against mouse P388/ADR cells assessed as reduction in cell viability measured after 72 hrs; details: time 72 hrs
K562 = assay: Antiproliferative activity against human K562 cells
PC-3 = assay: Antiproliferative activity against human PC-3 cells
A-431 = assay: Antiproliferative activity against human A-431 cells
MDA-MB-231 [5] = assay: Antiproliferative activity against human MDA-MB-231 cells; details: Homo sapiens, MDA-MB-231
COLO 205 = assay: Antiproliferative activity against human COLO 205 cells
HEK293 = assay: Antiproliferative activity against human HEK293 cells

SMILES	IC50 (KB) [nM]	IC50 (HepG2) [nM]	GI50 [4] [nM]	GI50 (HL-60) [nM]	GI50 (P388/ADR) [nM]	further results
CC1=CN([C@H]2C[C@H](n3cc(-c4cccc(NC(=O)CCC(=O)O[C@@H]5O[C@@H]6O[C@@]7(C)CC[C@H]8[C@H](C)CC[C@@H]([C@H]5C)[C@@]68OO7)c4)nn3)[C@@H](CO)O2)C(C)NC1=O (some centres undefined)	47600	47600				
COC(=O)c1ccc2c(c1)c(NCCCNC(=O)CCC(=O)O[C@H]1O[C@@H]3O[C@@]4(C)CC[C@H]5[C@H](C)CC[C@@H]([C@H]1C)[C@@]35OO4)c1c3ccccc3nc-1n2C						IC50 (MV4-11): 72 nM; IC50 (A549): 72 nM; IC50 (HCT-116 [1]): 72 nM
C[C@H]1[C@@H](OC(=O)CCC(=O)NCC(C)(C)CNc2c3c4ccccc4nc-3n(C)c3ccc(Cl)cc23)O[C@@H]2O[C@@]3(C)CC[C@H]4[C@H](C)CC[C@@H]1[C@@]24OO3						IC50 (MV4-11): 72 nM; IC50 (A549): 72 nM; IC50 (HCT-116 [1]): 72 nM
Cc1cn([C@H]2C[C@H](n3cc(COC(=O)CCCC(=O)O[C@@H]4O[C@@H]5O[C@@]6(C)CC[C@H]7[C@H](C)CC[C@@H]([C@H]4C)[C@@]57OO6)nn3)[C@@H](CO)O2)c(=O)[nH]c1=O	16500	16500				
C[C@H]1[C@@H](OCC(O)Cn2cc(-c3cccc(N)c3)nn2)O[C@@H]2O[C@@]3(C)CC[C@H]4[C@H](C)CC[C@@H]1[C@@]24OO3 (some centres undefined)	12500	32900				
Cc1cn(C2C[C@H](n3cc(CNC(=O)C(C)CC(=O)O[C@@H]4O[C@@H]5O[C@@]6(C)CC[C@H]7[C@H](C)CC[C@@H]([C@H]4C)[C@@]57OO6)nn3)[C@@H](CO)O2)c(=O)[nH]c1=O (single isomer, unassigned)	47600	47600				
COc1cccc2c1C(=O)c1c(O)c3c(c(O)c1C2=O)C[C@@](O)(C(=O)CO)C[C@@H]3O[C@H]1C[C@H](N)[C@H](O)[C@H](C)O1 [DOXORUBICIN]			8.7	8.7	3730	IC50 (HCT-116 [2]): 50 nM; IC50 (MDA-MB-231 [3]): 50 nM; IC50 (HT-29): 50 nM; IC50 (K562): 1430 nM; IC50 (PC-3): 1430 nM; IC50 (A-431): 1430 nM; IC50 (MDA-MB-231 [5]): 1430 nM; IC50 (COLO 205): 1430 nM; IC50 (HEK293): 1430 nM
Cc1cn([C@H]2C[C@H](n3cc(CNC(=O)CCCC(=O)O[C@@H]4O[C@@H]5O[C@@]6(C)CC[C@H]7[C@H](C)CC[C@@H]([C@H]4C)[C@@]57OO6)nn3)[C@@H](CO)O2)c(=O)[nH]c1=O	47600	47600				
C[C@H]1[C@H](OC(=O)CCC(=O)N2CCN(C)CC2)O[C@@H]2O[C@]3(C)CC[C@H]4[C@H](C)CC[C@@H]1[C@@]24OO3			231	231	231	
CCN1CCN(C(=O)CCC(=O)O[C@@H]2O[C@@H]3O[C@]4(C)CC[C@H]5[C@H](C)CC[C@@H]([C@H]2C)[C@@]35OO4)CC1			231	231	231	
Cc1cn([C@H]2C[C@H](n3cc(CNC(=O)CC(C)CC(=O)O[C@@H]4O[C@@H]5O[C@@]6(C)CC[C@H]7[C@H](C)CC[C@@H]([C@H]4C)[C@@]57OO6)nn3)[C@@H](CO)O2)c(=O)[nH]c1=O (some centres undefined)	47600	47600				
CC(C)N1CCN(C(=O)CCC(=O)O[C@@H]2O[C@@H]3O[C@]4(C)CC[C@H]5[C@H](C)CC[C@@H]([C@H]2C)[C@@]35OO4)CC1			231	231	231	
Cc1cn(C2C[C@H](n3cc(COC(=O)CCC(=O)O[C@@H]4O[C@@H]5O[C@@]6(C)CC[C@H]7[C@H](C)CC[C@@H]([C@H]4C)[C@@]57OO6)nn3)[C@@H](CO)O2)c(=O)[nH]c1=O (single isomer, unassigned)	16500	16500				
C[C@H]1[C@H](OC(=O)CCC(=O)N2CCN(c3ccccc3)CC2)O[C@@H]2O[C@]3(C)CC[C@H]4[C@H](C)CC[C@@H]1[C@@]24OO3			231	231	231	

From ChEMBL document CHEMBL5244230, “Artemisinin-derived hybrids and their anticancer activity” (Eur J Med Chem, 2020)
